Data reported in patent US11254665B2, “Crystalline sulfamide compound” (CHIA TAI TIANQING PHARMACEUTICAL GROUP CO., LTD., priority 2017, dated 2022).

Legend:
IDH1(R132C) = IDH1(R132C) (Homo sapiens, UniProt O75874, R132C); experiment: Enzyme assay (NADPH/diaphorase/resazurin), IDH1 mutant inhibition; type: biochemical; details: 16 h pre-incubation with enzyme and NADPH at 23° C.
Text: (§1) Resazurin is a traditional redox dye, and after a redox reaction, it can be reduced from a blue resazurin without fluorescence to a pink fluorescent substance, resorufin, which can be measured and quantified with relative fluorescence unit (RFU) of fluorophotometer (Ex=530-570 nm, Em=590-620 nm). At present, resazurin is widely used for determining the viability of bacteria, cells, etc., and the enzyme activity detection of oxidoreductase. We detected the decrease of cofactor NADPH to determine the inhibitory activity of a compound against IDH1m and detected the generation of cofactor NADPH to determine the inhibitory activity of a compound against IDH WT. […] The amount of the remaining cofactor NADPH after a specific reaction time was quantified via an easily detectable fluorophore.
(§2) The specific operation was as follows: 2.5 μl of the compound diluted in a 3-fold gradient was added to a 384-well plate, followed by adding 5 μl of the reaction buffer (20 mM Tris-HCl, pH 7.5; 150 mM NaCl; 10 mM MgCl2; 0.4 mg/mL BSA (Bovine Serum Albumin) and 2 mM DTT (dithiothreitol)) containing 40 nM IDH1 (R132H/R132C) and 20 μM NADPH. […] After incubating at 23° C. for 10 minutes, fluorescence values were determined through Flexstation 3 at Ex535/Em595. […]

IDH1(R132H) = IDH1(R132H) (Homo sapiens, UniProt O75874, R132H); experiment: as above; type: biochemical; details: 16 h pre-incubation with enzyme and NADPH at 23° C.
Sequence of IDH1(R132H) (O75874 whole entry R132H): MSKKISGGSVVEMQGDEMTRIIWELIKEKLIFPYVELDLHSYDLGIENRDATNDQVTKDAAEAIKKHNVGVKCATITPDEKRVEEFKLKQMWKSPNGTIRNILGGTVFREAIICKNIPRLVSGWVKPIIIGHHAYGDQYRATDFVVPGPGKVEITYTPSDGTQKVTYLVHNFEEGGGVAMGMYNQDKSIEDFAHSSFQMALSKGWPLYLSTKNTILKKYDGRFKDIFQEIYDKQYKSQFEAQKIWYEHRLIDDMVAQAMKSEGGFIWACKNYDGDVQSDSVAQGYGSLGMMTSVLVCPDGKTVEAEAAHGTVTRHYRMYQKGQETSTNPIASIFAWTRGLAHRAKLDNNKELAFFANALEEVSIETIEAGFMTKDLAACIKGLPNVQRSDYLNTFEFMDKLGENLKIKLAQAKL
Text: as §1, §2

[1] = Pharmacokinetic experiments, single peroral administration; type: in vivo; details: rat; male SD rats, oral 5 mg/kg, suspension in 0.5% MC, 0.2% Tween80, plasma
Experimental: Male SD rats were from Beijing Vital River Laboratory Animal Technology Co., Ltd., and divided into groups (3 rats per group). The rats were intragastrically administered with the test sample suspension (5 mg/kg) via a single peroral administration, respectively. The animals were fasted overnight before this study. The fasting time period was from 10 hours before administration to 4 hours after administration. Blood samples were taken at 0.25, 0.5, 1, 2, 4, 6, 8 and 24 hours after administration. After the rats were anesthetized with isoflurane using an anesthesia machine for small animal, and then 0.3 mL whole blood samples were taken from the fundus venous plexus. The blood samples were placed in heparin anticoagulant tubes, and centrifuged for 5 min at 4° C. and 4000 rpm. The plasma was transferred to centrifuge tubes, and stored at −80° C. till analysis. The samples in plasma were extracted through protein precipitation. The liquid extract was analyzed by LC-MS/MS, wherein HPLC conditions were as follows: flow rate 0.4 mL/min; mobile phase A: water/formic acid (99.9/0.1, v/v); mobile phase B: acetonitrile/formic acid (99.9/0.1, v/v); injection volume: 5 μL; column temperature: RT; autosampler temperature: RT; run time: 2.5 min.

[2] = Stability influencing factors: high temperature test; type: physicochemical
Experimental: (§3) In accordance with “Stability Testing of New Drug Substances and Products” in ICH Q1A and “Guidelines for the Stability Testing of Drug Substances and Preparations” in Pharmacopoeia of China, fourth part, 2015 edition, 9001, the stability influencing factors were tested for the crystal of the monohydrate formula II, including high temperature, high humidity and light tests.
(§4) In accordance with “Stability Testing of New Drug Substances and Products” in ICH Q1A and “Guidelines for the Stability Testing of Drug Substances and Preparations” in Pharmacopoeia of China, fourth part, 2015 edition, 9001, the stability influencing factors were tested for the crystal of the compound of formula I, including high temperature and high humidity tests.
(§5) In accordance with “Stability Testing of New Drug Substances and Products” in ICH Q1A and “Guidelines for the Stability Testing of Drug Substances and Preparations” in Pharmacopoeia of China, fourth part, 2015 edition, 9001, the stability influencing factors were tested for the amorphous form of the compound of formula I, including high temperature and high humidity tests.

[3] = Stability influencing factors: high humidity test; type: physicochemical
Experimental: as §3, §4, §5

[4] = Stability influencing factors: light test; type: physicochemical
Experimental: as §3

Sequence of IDH1(R132C) (O75874 whole entry R132C): as the sequence (O75874 whole entry R132H) above, with H132C counted along it

N#Cc1ccnc(N2[C@H](C(=O)N(c3cccc(F)c3)[C@H](C(=O)NC3CC(F)(F)C3)c3ccccc3Cl)CCS2(=O)=O)c1 [Compound of formula I, (S)—N—((S)-1-(2-chlorophenyl)-2-((3,3-difluorocyclobutyl)amino)-2-oxoethyl)-2-(4-cyanopyridin-2-yl)-N-(3-fluorophenyl)-isothiazolidine-3-carboxamide 1,1-dioxide]
IC50 (IDH1(R132C)): < 20 nM
IC50 (IDH1(R132H)): < 20 nM
Tmax [1]: 4 h

N#Cc1ccnc(N2[C@H](C(=O)N(c3cccc(F)c3)[C@H](C(=O)NC3CC(F)(F)C3)c3ccccc3Cl)CCS2(=O)=O)c1 [amorphous form of the compound of formula I]
Appearance ([2]; 0 day): White
Total impurities (%) ([2]; 0 day): 0.28%
Water (%) ([2]; 0 day): 1.4%
Appearance ([2]; 40° C., 5 day): White
Total impurities (%) ([2]; 40° C., 5 day): 0.25%
Water (%) ([2]; 40° C., 5 day): 1.1%
Appearance ([2]; 40° C., 10 day): White
Total impurities (%) ([2]; 40° C., 10 day): 0.28%
Water (%) ([2]; 40° C., 10 day): 1.0%
Appearance ([2]; 40° C., 30 day): White
Total impurities (%) ([2]; 40° C., 30 day): 0.26%
Water (%) ([2]; 40° C., 30 day): 0.8%
Appearance ([2]; 60° C., 5 day): White
Total impurities (%) ([2]; 60° C., 5 day): 0.31%
Water (%) ([2]; 60° C., 5 day): 0.8%
Appearance ([2]; 60° C., 10 day): White
Total impurities (%) ([2]; 60° C., 10 day): 0.27%
Water (%) ([2]; 60° C., 10 day): 0.6%
Appearance ([2]; 60° C., 30 day): White
Total impurities (%) ([2]; 60° C., 30 day): 0.28%
Water (%) ([2]; 60° C., 30 day): 0.5%
Appearance ([3]; 0 day): White
Total impurities (%) ([3]; 0 day): 0.28%
Water (%) ([3]; 0 day): 1.4%
Appearance ([3]; 75% RH, 5 day): White
Total impurities (%) ([3]; 75% RH, 5 day): 0.30%
Water (%) ([3]; 75% RH, 5 day): 1.7%
Appearance ([3]; 75% RH, 10 day): White
Total impurities (%) ([3]; 75% RH, 10 day): 0.30%
Water (%) ([3]; 75% RH, 10 day): 1.8%
Appearance ([3]; 75% RH, 30 day): White
Total impurities (%) ([3]; 75% RH, 30 day): 0.27%
Water (%) ([3]; 75% RH, 30 day): 1.8%
Appearance ([3]; 92.5% RH, 5 day): White
Total impurities (%) ([3]; 92.5% RH, 5 day): 0.30%
Water (%) ([3]; 92.5% RH, 5 day): 2.1%
Appearance ([3]; 92.5% RH, 10 day): White
Total impurities (%) ([3]; 92.5% RH, 10 day): 0.29%
Water (%) ([3]; 92.5% RH, 10 day): 2.3%
Appearance ([3]; 92.5% RH, 30 day): White
Total impurities (%) ([3]; 92.5% RH, 30 day): 0.26%
Water (%) ([3]; 92.5% RH, 30 day): 2.4%

N#Cc1ccnc(N2[C@H](C(=O)N(c3cccc(F)c3)[C@H](C(=O)NC3CC(F)(F)C3)c3ccccc3Cl)CCS2(=O)=O)c1 [crystal of the compound of formula I]
Appearance ([2]; 0 day): White
Total impurities (%) ([2]; 0 day): 0.39%
Water (%) ([2]; 0 day): 0.45%
Appearance ([2]; 40° C., 5 day): White
Total impurities (%) ([2]; 40° C., 5 day): 0.42%
Water (%) ([2]; 40° C., 5 day): 0.85%
Appearance ([2]; 40° C., 12 day): White
Total impurities (%) ([2]; 40° C., 12 day): 0.37%
Water (%) ([2]; 40° C., 12 day): 0.85%
Appearance ([2]; 60° C., 5 day): White
Total impurities (%) ([2]; 60° C., 5 day): 0.63%
Water (%) ([2]; 60° C., 5 day): 0.59%
Appearance ([2]; 60° C., 12 day): White
Total impurities (%) ([2]; 60° C., 12 day): 0.54%
Water (%) ([2]; 60° C., 12 day): 0.73%
Appearance ([3]; 0 day): White
Total impurities (%) ([3]; 0 day): 0.39%
Water (%) ([3]; 0 day): 0.45%
Appearance ([3]; 75% RH, 5 day): White
Total impurities (%) ([3]; 75% RH, 5 day): 0.43%
Water (%) ([3]; 75% RH, 5 day): 0.94%
Appearance ([3]; 75% RH, 12 day): White
Total impurities (%) ([3]; 75% RH, 12 day): 0.37%
Water (%) ([3]; 75% RH, 12 day): 1.16%
Appearance ([3]; 92.5% RH, 5 day): White
Total impurities (%) ([3]; 92.5% RH, 5 day): 0.47%
Water (%) ([3]; 92.5% RH, 5 day): 1.58%
Appearance ([3]; 92.5% RH, 12 day): White
Total impurities (%) ([3]; 92.5% RH, 12 day): 0.37%
Water (%) ([3]; 92.5% RH, 12 day): 1.75%

N#Cc1ccnc(N2[C@H](C(=O)N(c3cccc(F)c3)[C@H](C(=O)NC3CC(F)(F)C3)c3ccccc3Cl)CCS2(=O)=O)c1 [crystal of the monohydrate of formula II]
Appearance ([2]; 0 day): White
Enantiomers (%) ([2]; 0 day): 0.01%
Total impurities (%) ([2]; 0 day): 0.38%
Total of diastereoisomers (%) ([2]; 0 day): 0.05%
Water (%) ([2]; 0 day): 3.10%
Appearance ([2]; 40° C., 5 day): White
Enantiomers (%) ([2]; 40° C., 5 day): 0.01%
Total impurities (%) ([2]; 40° C., 5 day): 0.45%
Total of diastereoisomers (%) ([2]; 40° C., 5 day): 0.05%
Water (%) ([2]; 40° C., 5 day): 2.69%
Appearance ([2]; 40° C., 10 day): White
Enantiomers (%) ([2]; 40° C., 10 day): 0.01%
Total impurities (%) ([2]; 40° C., 10 day): 0.47%
Total of diastereoisomers (%) ([2]; 40° C., 10 day): 0.05%
Water (%) ([2]; 40° C., 10 day): 2.45%
Appearance ([2]; 60° C., 5 day): White
Total impurities (%) ([2]; 60° C., 5 day): 0.48%
Total of diastereoisomers (%) ([2]; 60° C., 5 day): 0.05%
Water (%) ([2]; 60° C., 5 day): 2.67%
Appearance ([2]; 60° C., 10 day): White
Enantiomers (%) ([2]; 60° C., 10 day): 0.01%
Total impurities (%) ([2]; 60° C., 10 day): 0.47%
Total of diastereoisomers (%) ([2]; 60° C., 10 day): 0.05%
Water (%) ([2]; 60° C., 10 day): 2.51%
Appearance ([3]; 0 day): White
Enantiomers (%) ([3]; 0 day): 0.01%
Total impurities (%) ([3]; 0 day): 0.38%
Total of diastereoisomers (%) ([3]; 0 day): 0.05%
Water (%) ([3]; 0 day): 3.10%
Appearance ([3]; 75% RH, 5 day): White
Enantiomers (%) ([3]; 75% RH, 5 day): 0.01%
Total impurities (%) ([3]; 75% RH, 5 day): 0.44%
Total of diastereoisomers (%) ([3]; 75% RH, 5 day): 0.05%
Water (%) ([3]; 75% RH, 5 day): 2.69%
Appearance ([3]; 75% RH, 10 day): White
Enantiomers (%) ([3]; 75% RH, 10 day): 0.01%
Total impurities (%) ([3]; 75% RH, 10 day): 0.50%
Total of diastereoisomers (%) ([3]; 75% RH, 10 day): 0.05%
Water (%) ([3]; 75% RH, 10 day): 2.53%
Appearance ([3]; 92.5% RH, 5 day): White
Enantiomers (%) ([3]; 92.5% RH, 5 day): 0.01%
Total impurities (%) ([3]; 92.5% RH, 5 day): 0.49%
Total of diastereoisomers (%) ([3]; 92.5% RH, 5 day): 0.04%
Water (%) ([3]; 92.5% RH, 5 day): 2.72%
Appearance ([3]; 92.5% RH, 10 day): White
Enantiomers (%) ([3]; 92.5% RH, 10 day): 0.01%
Total impurities (%) ([3]; 92.5% RH, 10 day): 0.49%
Total of diastereoisomers (%) ([3]; 92.5% RH, 10 day): 0.05%
Water (%) ([3]; 92.5% RH, 10 day): 2.42%
Appearance ([4]; 0 day): White
Enantiomers (%) ([4]; 0 day): 0.01%
Total impurities (%) ([4]; 0 day): 0.38%
Total of diastereoisomers (%) ([4]; 0 day): 0.05%
Water (%) ([4]; 0 day): 3.10%
Appearance ([4]; Lighting, 5 day): White
Enantiomers (%) ([4]; Lighting, 5 day): 0.01%
Total impurities (%) ([4]; Lighting, 5 day): 0.56%
Total of diastereoisomers (%) ([4]; Lighting, 5 day): 0.05%
Water (%) ([4]; Lighting, 5 day): 2.72%
Appearance ([4]; Lighting, 10 day): White
Enantiomers (%) ([4]; Lighting, 10 day): 0.01%
Total impurities (%) ([4]; Lighting, 10 day): 0.63%
Total of diastereoisomers (%) ([4]; Lighting, 10 day): 0.05%
Water (%) ([4]; Lighting, 10 day): 2.47%
Appearance ([4]; shading, 5 day): White
Enantiomers (%) ([4]; shading, 5 day): 0.01%
Total impurities (%) ([4]; shading, 5 day): 0.49%
Total of diastereoisomers (%) ([4]; shading, 5 day): 0.05%
Water (%) ([4]; shading, 5 day): 2.73%
Appearance ([4]; shading, 10 day): White
Enantiomers (%) ([4]; shading, 10 day): 0.01%
Total impurities (%) ([4]; shading, 10 day): 0.47%
Total of diastereoisomers (%) ([4]; shading, 10 day): 0.05%
Water (%) ([4]; shading, 10 day): 2.55%
